Assay results as given in patent US10364245B2 (CHIESI FARMACEUTICI S.p.A., priority 2017, dated 2019).
Structures can show the parent of a compound that is named as a salt.

Columns and labels:
[1] = molecular target: T1, p38 alpha (Homo sapiens, UniProt Q16539); assay: P38 alpha enzyme inhibition assay (Alphascreen kinase activity assay); format: biochemical; conditions: 100 pM p38 alpha, 2 hours preincubation at 25° C., 250 μM ATP, ATF-2 fusion protein; read-out: p38α inhibition
T1 construct: purchased Invitrogen PV3304
In short: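 Phosphorylation of ATF-2 fusion protein (0.3 μg/ml) read by AlphaScreen with anti-phospho-ATF2 antibody after 1 h kinase reaction at 25 °C, initiated by 250 μM ATP. Compounds first incubated 2 h at 25 °C with 100 pM p38 alpha in pH 7.5 HEPES buffer, 1% DMSO. IC50 derived from concentration-response data.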

[2] = test system: Peripheral Blood Mononuclear Cells (PBMCs), TNFα release; assay: LPS-stimulated PBMC TNFα release assay; format: cell-based; conditions: human PBMC, LPS (10 ng/ml), 18 h, compound 1 h before LPS; read-out: LPS-stimulated PBMC TNFα release inhibition
In short: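 TNFα in cell-free supernatant, read on MSD plates, gave % inhibition curves and IC50 (≥3 separate experiments). Healthy-donor PBMCs had 1 h compound exposure at 37 °C in 1% FBS medium, then 18 h stimulation with 10 ng/ml LPS, after a 3 h serum-free rest.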

T1 sequence (Q16539 whole entry, the tested form may be a part): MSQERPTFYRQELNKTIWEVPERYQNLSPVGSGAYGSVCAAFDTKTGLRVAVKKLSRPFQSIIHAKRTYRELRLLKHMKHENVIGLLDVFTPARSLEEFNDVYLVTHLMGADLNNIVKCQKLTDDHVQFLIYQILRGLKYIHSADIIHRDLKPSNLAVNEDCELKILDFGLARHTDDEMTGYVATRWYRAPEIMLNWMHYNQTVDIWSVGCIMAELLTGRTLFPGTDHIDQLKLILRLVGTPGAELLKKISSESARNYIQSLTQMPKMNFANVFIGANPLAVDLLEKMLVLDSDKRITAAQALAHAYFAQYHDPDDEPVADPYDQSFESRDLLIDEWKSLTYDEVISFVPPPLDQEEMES

`CN(C)CCNC(=O)c1cc(NC(=O)N[C@H]2CC[C@@H](Oc3ccc4nnc(C(C)(C)N5CCN(C)CC5)n4c3)c3ccccc32)cc(C(C)(C)C)n1` [Example 199, 6-(tert-Butyl)-N-(2-(dimethylamino)ethyl)-4-(3-((1S,4R)-4-((3-(2-(4-methylpiperazin-1-yl)propan-2-yl)-[1,2,4]triazolo[4,3-a]pyridin-6-yl)oxy)-1,2,3,4-tetrahydronaphthalen-1-yl)ureido)picolinamide formate salt] was tested, and the IC50 [1] was 1 to 10 nM and the IC50 [2] was > 5 nM.
`CC(C)(C)c1cc(NC(=O)N[C@H]2CC[C@@H](Oc3ccc4nnc(C(C)(C)C)n4c3)c3ccccc32)nc(CN2CCNC(=O)C2)n1` [Example 113, 1-(6-(tert-Butyl)-2-((3-oxopiperazin-1-yl)methyl)pyrimidin-4-yl)-3-((1S,4R)-4-((3-(tert-butyl)-[1,2,4]-triazolo[4,3-a]pyridin-6-yl)oxy)-1,2,3,4-tetrahydronaphthalen-1-yl)urea partial formate salt] was tested, and the IC50 [1] was 1 to 10 nM and the IC50 [2] was > 5 nM.
`CC(C)(C)c1cc(NC(=O)N[C@H]2CC[C@@H](Oc3ccc4nnc(C(C)(C)C)n4c3)c3ccccc32)nc(C(=O)NCCCN2CCCOCC2)n1` [Example 111, N-(3-(1,4-Oxazepan-4-yl)propyl)-4-(tert-butyl)-6-(3-((1S,4R)-4-((3-(tert-butyl)-[1,2,4]triazolo[4,3-a]pyridin-6-yl)oxy)-1,2,3,4-tetrahydronaphthalen-1-yl)ureido)pyrimidine-2-carboxamide partial formate salt] was tested, and the IC50 [1] was < 1 nM and the IC50 [2] was > 5 nM.
For `COCC(C)(C)c1nnc2ccc(O[C@@H]3CC[C@H](NC(=O)Nc4cc(C(C)(C)C)nc(C(=O)NCC(C)(C)N(C)C)n4)c4ccccc43)cn12` [Example 7, 4-(tert-Butyl)-N-(2-(dimethylamino)-2-methylpropyl)-6-(3-((1S,4R)-4-((3-(1-methoxy-2-methylpropan-2-yl)-[1,2,4]triazolo[4,3-a]pyridin-6-yl)oxy)-1,2,3,4-tetrahydronaphthalen-1-yl)ureido)pyrimidine-2-carboxamide], the IC50 [1] was < 1 nM and the IC50 [2] was 1 to 5 nM.
With `CCC(C)(C)c1nnc2ccc(O[C@@H]3CC[C@H](NC(=O)Nc4cc(C(C)(C)C)nc(C(=O)NCCN(C)CCOC)n4)c4ccccc43)cn12` [Example 4] the IC50 [1] was < 1 nM and the IC50 [2] was 1 to 5 nM.
For `CN(C)CCNC(=O)c1cc(NC(=O)N[C@H]2CC[C@@H](Oc3ccc4nnc(C(C)(C)C)n4c3)c3ccccc32)cc(C(C)(C)C)n1` [Example 186, 6-(tert-butyl)-4-(3-((1S,4R)-4-((3-(tert-butyl)-[1,2,4]triazolo[4,3-a]pyridin-6-yl)oxy)-1,2,3,4-tetrahydronaphthalen-1-yl)ureido)-N-(2-(dimethylamino)ethyl)-picolinamide], the IC50 [1] was < 1 nM and the IC50 [2] was < 1 nM.
For `COCC(C)(C)c1nnc2ccc(O[C@@H]3CC[C@H](NC(=O)Nc4cc(C(C)(C)C)nc(C(=O)NCCN(C)C)n4)c4ccccc43)cn12` [Example 54, 4-(tert-Butyl)-N-(2-(dimethylamino)ethyl)-6-(3-((1S,4R)-4-((3-(methoxy-2-methylpropan-2-yl)-[1,2,4]triazolo[4,3-a]pyridin-6-yl)oxy)-1,2,3,4-tetrahydronaphthalen-1-yl)ureido)pyrimidine-2-carboxamide], the IC50 [1] was < 1 nM and the IC50 [2] was 1 to 5 nM.
With `CCN(CC)c1nnc2ccc(O[C@@H]3CC[C@H](NC(=O)Nc4cc(C(C)(C)C)nc(C(=O)NCCN(C)C)n4)c4ccccc43)cn12` [Example 142, 4-(tert-butyl)-6-(3-((1S,4R)-4-((3-(diethylamino)-[1,2,4]triazolo[4,3-a]pyridin-6-yl)oxy)-1,2,3,4-tetrahydronaphthalen-1-yl)ureido)-N-(2-(dimethylamino)ethyl)-pyrimidine-2-carboxamide] the IC50 [1] was < 1 nM and the IC50 [2] was 1 to 5 nM.
With `CN(C)C(C)(C)CNC(=O)c1nc(NC(=O)N[C@H]2CC[C@@H](Oc3ccc4nnc(C(C)(C)C)n4c3)c3ccccc32)cc(C(C)(C)C)n1` [Example 117, 4-(tert-butyl)-6-(3-((1S,4R)-4-((3-(tert-butyl)-[1,2,4]triazolo[4,3-a]pyridin-6-yl)oxy)-1,2,3,4-tetrahydronaphthalen-1-yl)ureido)-N-(2-(dimethylamino)-2-methylpropyl)pyrimidine-2-carboxamide] the IC50 [1] was < 1 nM and the IC50 [2] was < 1 nM.
In the case of `CC(C)(C)c1cc(NC(=O)N[C@H]2CC[C@@H](Oc3ccc4nnc(C5CCCC5)n4c3)c3ccccc32)nc(C(=O)NCCN2CCOCC2)n1` [Example 75, 4-(tert-butyl)-6-(3-((1S,4R)-4-((3-cyclopentyl-[1,2,4]triazolo[4,3-a]pyridin-6-yl)oxy)-1,2,3,4-tetrahydronaphthalen-1-yl)ureido)-N-(2-morpholinoethyl)-pyrimidine-2-carboxamide], the IC50 [1] is reported as 1 to 10 nM and the IC50 [2] is reported as > 5 nM.
In the case of `CN(C)CCNC(=O)c1cc(C(C)(C)C)cc(NC(=O)N[C@H]2CC[C@@H](Oc3ccc4nnc(C(C)(C)C)n4c3)c3ccccc32)n1` [Example 58, 4-(tert-Butyl)-6-(3-((1S,4R)-4-((3-(tert-butyl)-[1,2,4]triazolo[4,3-a]pyridin-6-yl)oxy)-1,2,3,4-tetrahydronaphthalen-1-yl)ureido)-N-(2-(dimethylamino)ethyl)picolinamide], the IC50 [1] is reported as < 1 nM and the IC50 [2] is reported as 1 to 5 nM.
`CN1CCC[C@H]1c1nnc2ccc(O[C@@H]3CC[C@H](NC(=O)Nc4cc(C(C)(C)C)ncn4)c4ccccc43)cn12` [Example 46, 1-(6-(tert-Butyl)pyrimidin-4-yl)-3-((1S,4R)-4-((3-((S)-1-methylpyrrolidin-2-yl)-[1,2,4]triazolo[4,3-a]pyridine-6-yl)oxy)-1,2,3,4-tetrahydronaphthalene-1-yl)urea Hydrochloride] was tested, and the IC50 [1] was < 1 nM and the IC50 [2] was 1 to 5 nM.
In the case of `CC(C)(C)c1cc(NC(=O)N[C@H]2CC[C@@H](Oc3ccc4nnc(C5(C)CCCC5)n4c3)c3ccccc32)nc(C(=O)NCCN2CCOCC2)n1` [Example 25, 4-(tert-Butyl)-6-(3-((1S,4R)-4-((3-(1-methylcyclopentyl)-[1,2,4]triazolo[4,3-a]pyridin-6-yl)oxy)-1,2,3,4-tetrahydronaphthalen-1-yl)ureido)-N-(2-morpholinoethyl)pyrimidine-2-carboxamide], the IC50 [1] is reported as < 1 nM and the IC50 [2] is reported as < 1 nM.
For `CNC(=O)c1nc(NC(=O)N[C@H]2CC[C@@H](Oc3ccc4nnc([C@]5(C)CCCN5C)n4c3)c3ccccc32)cc(C(C)(C)C)n1` [Example 38, 4-(tert-Butyl)-6-(3-((1S,4R)-4-((3-((S)-1,2-dimethylpyrrolidin-2-yl)-[1,2,4]triazolo[4,3-a]pyridin-6-yl)oxy)-1,2,3,4-tetrahydronaphthalen-1-yl)ureido)-N-methylpyrimidine-2-carboxamide], the IC50 [1] was < 1 nM and the IC50 [2] was < 1 nM.
For `CC(C)c1nnc2ccc(O[C@@H]3CC[C@H](NC(=O)Nc4cc(C(C)(C)C)nc(C(=O)NCCO)n4)c4ccccc43)cn12` [Example 65, 4-(tert-butyl)-N-(2-hydroxyethyl)-6-(3-((1S,4R)-4-((3-isopropyl-[1,2,4]triazolo[4,3-a]pyridin-6-yl)oxy)-1,2,3,4-tetrahydronaphthalen-1-yl)ureido)pyrimidine-2-carboxamide], the IC50 [1] was < 1 nM and the IC50 [2] was > 5 nM.
`CN1CCN(C(C)(C)c2nnc3ccc(O[C@@H]4CC[C@H](NC(=O)Nc5cc(C(C)(C)C)nc(CO)n5)c5ccccc54)cn23)CC1` [Example 23, 1-(6-(tert-Butyl)-2-(hydroxymethyl)pyrimidin-4-yl)-3-((1S,4R)-4-((3-(2-(4-methylpiperazin-1-yl)propan-2-yl)-[1,2,4]triazolo[4,3-a]pyridin-6-yl)oxy)-1,2,3,4-tetrahydronaphthalen-1-yl)urea] was tested, and the IC50 [1] was 1 to 10 nM and the IC50 [2] was > 5 nM.
For `COC(C)(C)c1nnc2ccc(O[C@@H]3CC[C@H](NC(=O)Nc4cc(C(C)(C)C)nc(C(=O)NCCN5CCOCC5)n4)c4ccccc43)cn12` [Example 95, 4-(tert-butyl)-6-(3-((1S,4R)-4-((3-(2-methoxypropan-2-yl)-[1,2,4]triazolo[4,3-a]pyridin-6-yl)oxy)-1,2,3,4-tetrahydronaphthalen-1-yl)ureido)-N-(2-morpholinoethyl)-pyrimidine-2-carboxamide], the IC50 [1] was 1 to 10 nM and the IC50 [2] was > 5 nM.
With `CCC(C)(C)c1nnc2ccc(O[C@@H]3CC[C@H](NC(=O)Nc4cc(C(C)(C)C)nc(C(=O)NCCN(C)CCO)n4)c4ccccc43)cn12` [Example 2, 4-(tert-Butyl)-N-(2-((2-hydroxyethyl)(methyl)amino)ethyl)-6-(3-((1S,4R)-4-((3-(tert-pentyl)-[1,2,4]triazolo[4,3-a]pyridin-6-yl)oxy)-1,2,3,4-tetrahydronaphthalen-1-yl)ureido)pyrimidine-2-carboxamide] the IC50 [1] was < 1 nM and the IC50 [2] was 1 to 5 nM.
Work on `CC[C@H](C)c1nnc2ccc(O[C@@H]3CC[C@H](NC(=O)Nc4cc(C(=O)NCC(C)(C)N(C)C)nc(C(C)(C)C)c4)c4ccccc43)cn12` [Example 202, 6-(tert-Butyl)-4-(3-((1S,4R)-4-((3-((S)-sec-butyl)-[1,2,4]triazolo[4,3-a]pyridin-6-yl)oxy)-1,2,3,4-tetrahydronaphthalen-1-yl)ureido)-N-(2-(dimethylamino)-2-methylpropyl)-picolinamide formate salt] yielded an IC50 [1] of 1 to 10 nM and an IC50 [2] of 1 to 5 nM.
With `CC(C)(C)c1cc(NC(=O)N[C@H]2CC[C@@H](Oc3ccc4nnc(C(C)(C)C)n4c3)c3ccccc32)nc(C(=O)NCCN2CCC(O)CC2)c1` [Example 211, 4-(tert-butyl)-6-(3-((1S,4R)-4-((3-(tert-butyl)-[1,2,4]triazolo[4,3-a]pyridin-6-yl)oxy)-1,2,3,4-tetrahydronaphthalen-1-yl)ureido)-N-(-(2-(4-hydroxypiperidin-1-yl)ethyl)picolinamide formate salt] the IC50 [1] was < 1 nM and the IC50 [2] was > 5 nM.
